Patent US12391695B2, “PRMT5 inhibitors” (Lupin Limited, priority 2019, dated 2025)
Read-outs that look alike come from different tables or passages of the source.

Experiments:
PRMT5:MEP50 = PRMT5:MEP50 (Homo sapiens, UniProt O14744); experiment: PRMT5 biochemical assay (HTRF, biotinylated H4R3 substrate), protocols 1 and 2; settings: 1 μM SAM, 50 nM biotinylated H4R3, protocol 1 or 2 not given, read-out: IC50 (activity range), inhibition of PRMT5
Experimental: (§1) Inhibitory effect of compounds on PRMT5 was assessed using HTRF detection technology in biochemical assay. Biotinylated H4R3 (residues 1-21) was used as a substrate. Compounds were pre-incubated with 15-25 ng PRMT5:MEP50 per well of a 384-well plate for 30 min at room temperature in the assay buffer containing 20 mM Bicine, pH 7.6, 25 mM NaCl, 2 mM DTT, 0.01% Chicken albumin and 0.01% Tween-20. Reaction was initiated by adding 1 μM of SAM and 50 nM biotinylated H4R3. Total assay volume was 15 μL. Reaction was continued for 120 min at room temperature. Then detection solution containing Streptavidin-Eu cryptate, anti-rabbit IgG-XL-665, Histone H4R3 Dimethyl Symmetric (H4R3me2s) Polyclonal Antibody, all prepared in HTRF detection buffer was added and further incubated for 30 min at room temperature. HTRF signal was recorded in PHERAStar microplate reader. Ratio of signal obtained at 665 nm and 620 nm was used to compute the percent inhibition of compound as follows % Inhibition=100−((Test Ratio−Negative control Ratio)/(Positive control Ratio−Negative control Ratio)*100) where Positive control=PRMT5+SAM+H4R3 Negative control=PRMT5+H4R3 Biochemical Assay Protocol 2
as §1, with “2.5” for “15-25”, “4 h” for “120 min”, “control=PRMT5+H4R3” for “control=PRMT5+H4R3 Biochemical Assay Protocol 2”

SDMA = SDMA inhibition assay in Z-138 cells (ELISA with anti-SDMA antibody); format: cell-based; settings: Homo sapiens, Z-138, 48 h, 48 h treatment
Experimental: Z-138 cells (ATCC, CRL-3001™) were seeded at a density of 1 million cells/well in transparent, flat bottomed tissue culture grade 48-well plates. Cells were treated with various concentration of test compounds for a period of 48 h. Cell lysate was prepared using 1× CST Lysis buffer (Cell Signaling Technology, USA) and 500 ng/well/50 μL of lysate in pH 9.6 carbonate buffer was coated on 96-well Maxisorb plate and incubated overnight at 4° C. The plate was washed twice in 1×PBS containing 0.05% Tween 20 and blocked in 1% BSA for 1 h at ambient temperature. Further, the plate was incubated first with primary antibody (anti-SDMA antibody; CST #13222s) at ambient temperature for 2 h and then with HRP-conjugated secondary antibody at ambient temperature for 1 h with 2 intermittent washing steps in between.
For luminiscence based detection, HRP substrates (substrate A+substrate B in a 1:1 proportion) were added followed by luminiscence reading after 30 min in Synergy™ 2 reader (Biotek, USA).
For absorbance based detection, TMB substrate was added followed by addition of STOP solution (2N H2SO4) post colour development and absorbance (excitation 450 nm and emission 540 nm) was measured in Synergy™ 2 reader (Biotek, USA).
% inhibition of SDMA was calculated relative to the vehicle control samples containing media with 0.1% DMSO alone as per the formula below. (Avg. of Untreated Control−Avg. of Test)×100 Avg. Of Untreated Control
The IC50 values of individual compounds were calculated with Non Linear Regression Analysis using Graph Pad Prism (Graph Pad software, Inc, USA).

Z-138 cells = experiment: Anti-cancer assay (Z-138), cell viability by CellTiterGlo; format: cell-based; settings: Homo sapiens, 96 h treatment, read-out: IC50 (activity range), inhibition of cell viability
Experimental: Z-138 cells were seeded at a density of 2000-3000 cells per well in culture media (IMDM+10% FBS). PANC-1 (ATCC, CRL-1469™) and MIA PaCa-2 (ATCC, CRL-1420™) cells were seeded at a density of 200-300 cells per well in culture media (DMEM+10% FBS). Cells were seeded in opaque, flat bottomed tissue culture grade 96-well plates and Z-138 cells (suspension) were seeded and treated on the same day with various concentrations of test compounds. PANC-1 and MIA PaCa-2 cells, being adherent, were kept for overnight settlement at standard cell culture conditions (37° C., 5% CO2). On the following day, cells were treated with various concentrations of test compounds. Cells were treated with test compounds for a period of 96 h, 7 days and 10 days, for Z-138 cells, PANC-1 cells and MIA PaCa-2 cells, respectively. Cell viability was assessed using CellTiterGlo™ (Promega, USA) as per manufacturer's instructions. Relative Light Units (RLU) were read in Synergy™ 2 reader (Biotek, USA). The assay measures cellular ATP as an indicator of cell viability. RLU is proportional to the number of viable cells in the respective well. % inhibition of cell viability was calculated relative to the vehicle control samples containing media with 0.1% DMSO alone as per the formula below. (Avg. of Untreated Control−Avg. of Test)×100 Avg. Of Untreated Control
The IC50 values of individual compounds were calculated with Non Linear Regression Analysis using Graph Pad Prism (Graph Pad software, Inc, USA). • Anti-Cancer Assay (Z-138)

[1] = read-out: IC50 (activity range), SDMA inhibition
[2] = range with mixed units pM/nM, units kept in the value

PRMT5:MEP50, sequence (O14744 whole entry, the tested form may be a part): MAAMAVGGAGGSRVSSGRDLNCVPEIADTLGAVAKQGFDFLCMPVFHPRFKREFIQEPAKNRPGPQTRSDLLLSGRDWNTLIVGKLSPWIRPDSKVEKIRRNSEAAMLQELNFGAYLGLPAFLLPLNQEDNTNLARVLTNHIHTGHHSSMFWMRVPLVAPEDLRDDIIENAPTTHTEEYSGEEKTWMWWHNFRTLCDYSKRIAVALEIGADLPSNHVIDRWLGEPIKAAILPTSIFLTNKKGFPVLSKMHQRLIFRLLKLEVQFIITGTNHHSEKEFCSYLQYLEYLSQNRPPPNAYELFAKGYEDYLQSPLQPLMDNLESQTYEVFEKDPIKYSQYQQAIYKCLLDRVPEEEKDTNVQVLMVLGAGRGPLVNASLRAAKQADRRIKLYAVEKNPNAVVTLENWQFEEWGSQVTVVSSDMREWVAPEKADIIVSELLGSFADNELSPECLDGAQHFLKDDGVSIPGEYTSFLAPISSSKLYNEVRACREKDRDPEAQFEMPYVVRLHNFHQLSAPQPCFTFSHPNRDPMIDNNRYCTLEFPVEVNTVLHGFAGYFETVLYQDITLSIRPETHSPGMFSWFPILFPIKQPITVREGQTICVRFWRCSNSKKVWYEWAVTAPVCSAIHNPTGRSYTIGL
PRMT5:MEP50, sequence (Q9BQA1 whole entry partner, the tested form may be a part): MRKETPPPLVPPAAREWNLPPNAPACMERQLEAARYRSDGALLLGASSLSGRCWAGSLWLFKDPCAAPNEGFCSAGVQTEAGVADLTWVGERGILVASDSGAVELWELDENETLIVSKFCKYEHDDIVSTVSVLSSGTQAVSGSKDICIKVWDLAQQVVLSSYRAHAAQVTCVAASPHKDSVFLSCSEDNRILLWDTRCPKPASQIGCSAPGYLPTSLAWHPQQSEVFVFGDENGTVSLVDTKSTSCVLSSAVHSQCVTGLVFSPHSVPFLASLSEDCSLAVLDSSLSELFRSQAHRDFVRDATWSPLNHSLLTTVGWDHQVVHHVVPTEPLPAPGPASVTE

## Nc1ncnc2c1ccn2[C@@H]1C=C(COc2cc(C(F)F)c(F)c3c2CNCC3)[C@@H](O)[C@H]1O [Compound 12, (1S,2R,5R)-5-(4-amino-7H-pyrrolo[2,3-d]pyrimidin-7-yl)-3-(((6-(difluoromethyl)-5-fluoro-1,2,3,4-tetrahydroisoquinolin-8-yl)oxy)methyl)cyclopent-3-ene-1,2-diol]
PRMT5:MEP50
  IC50: 0.25 to 0.95 nM
SDMA; [1]
  IC50: 1100 to 50000 pM
Z-138 cells
  IC50: > 1000 pM

## Cc1nc(N)c2cnn([C@@H]3C=C(CCc4cc(F)c5cc(Cl)c(N)nc5c4)[C@@H](O)[C@H]3O)c2n1 [Compound 6, (1S,2R,5R)-3-(2-(2-amino-3-chloro-5-fluoroquinolin-7-yl)ethyl)-5-(4-amino-6-methyl-1H-pyrazolo[3,4-d]pyrimidin-1-yl)cyclopent-3-ene-1,2-diol]
PRMT5:MEP50
  IC50: 0.25 to 0.95 nM
SDMA; [1]
  IC50: 1100 to 50000 pM
Z-138 cells; [2]
  IC50: 101 to 1000 pM

## Nc1nc2cc(OCC3=C[C@@H](n4cnc(N)c(F)c4=O)[C@H](O)[C@@H]3O)cc(F)c2cc1Cl [Compound 19, 6-amino-3-((1R,4R,5S)-3-(((2-amino-3-chloro-5-fluoroquinolin-7-yl)oxy)methyl)-4,5-dihydroxycyclopent-2-en-1-yl)-5-fluoropyrimidin-4 (3H)-one]
PRMT5:MEP50
  IC50: > 0.95 nM
SDMA; [2]
  IC50: 100 to 1000 pM
Z-138 cells
  IC50: > 1000 pM

## Nc1ncnc2c1ccn2[C@@H]1C=C(CCc2cc(Cl)c(F)c3c2CNCC3)[C@@H](O)[C@H]1O [Compound 20, (1S,2R,5R)-5-(4-amino-7H-pyrrolo[2,3-d]pyrimidin-7-yl)-3-(2-(6-chloro-5-fluoro-1,2,3,4-tetrahydroisoquinolin-8-yl)ethyl)cyclopent-3-ene-1,2-diol]
PRMT5:MEP50
  IC50: 0.25 to 0.95 nM
SDMA; [1]
  IC50: 1100 to 50000 pM
Z-138 cells
  IC50: > 1000 pM

## Nc1ccn([C@@H]2C=C(COc3cc(F)c4cc(Cl)c(N)nc4c3)[C@@H](O)[C@H]2O)c(=O)n1 [Compound 16, 4-Amino-1-((1R,4R,5S)-3-(((2-amino-3-chloro-5-fluoroquinolin-7-yl)oxy)methyl)-4,5-dihydroxycyclopent-2-en-1-yl)pyrimidin-2 (1H)-one]
PRMT5:MEP50
  IC50: 0.25 to 0.95 nM

## Nc1cc(=O)n([C@@H]2C=C(COc3cc(F)c4cc(Cl)c(N)nc4c3)[C@@H](O)[C@H]2O)cn1 [Compound 17, 6-amino-3-((1R,4R,5S)-3-(((2-amino-3-chloro-5-fluoroquinolin-7-yl)oxy)methyl)-4,5-dihydroxycyclopent-2-en-1-yl)pyrimidin-4 (3H)-one]
PRMT5:MEP50
  IC50: 0.25 to 0.95 nM
SDMA; [1]
  IC50: 1100 to 50000 pM
Z-138 cells
  IC50: > 1000 pM

## Nc1nc2cc(CCC3=C[C@@H](n4ncc5c4ncn4ccnc54)[C@H](O)[C@@H]3O)cc(F)c2cc1Cl [Compound 29, (1S,2R,5R)-3-(2-(2-Amino-3-chloro-5-fluoroquinolin-7-yl)ethyl)-5-(7H-imidazo[1,2-c]pyrazolo[4,3-e]pyrimidin-7-yl)cyclopent-3-ene-1,2-diol]
PRMT5:MEP50
  IC50: > 0.95 nM

## Nc1ncnc2c1ccn2[C@@H]1C=C(CCc2cc(C(F)F)c(F)c3c2CNCC3)[C@@H](O)[C@H]1O [Compound 13, (1S,2R,5R)-5-(4-amino-7H-pyrrolo[2,3-d]pyrimidin-7-yl)-3-(2-(6-(difluoromethyl)-5-fluoro-1,2,3,4-tetrahydroisoquinolin-8-yl)ethyl)cyclopent-3-ene-1,2-diol]
PRMT5:MEP50
  IC50: 0.25 to 0.95 nM
SDMA; [1]
  IC50: 1100 to 50000 pM
Z-138 cells; [2]
  IC50: 101 to 1000 pM

## Nc1nc2cc(CCC3=C[C@@H](n4ccc5c(N)ncnc54)[C@H](O)[C@@H]3O)cnc2cc1Cl [Compound 2, (1S,2R,5R)-3-(2-(6-Amino-7-chloro-1,5-naphthyridin-3-yl)ethyl)-5-(4-amino-7H-pyrrolo [2,3-d]pyrimidin-7-yl)cyclopent-3-ene-1,2-diol]
PRMT5:MEP50
  IC50: 0.25 to 0.95 nM
SDMA; [1]
  IC50: 1100 to 50000 pM
Z-138 cells
  IC50: > 1000 pM

## Nc1nc2cc(CCC3=C[C@@H](n4ccc5cn6ccnc6nc54)[C@H](O)[C@@H]3O)ccc2cc1Cl [Compound 28, (1S,2R,5R)-3-(2-(2-Amino-3-chloroquinolin-7-yl)ethyl)-5-(8H-imidazo[1,2-a]pyrrolo[2,3-d]pyrimidin-8-yl)cyclopent-3-ene-1,2-diol]
PRMT5:MEP50
  IC50: > 0.95 nM
Z-138 cells
  IC50: > 1000 pM

## CC1Cc2c(F)c(C(F)F)cc(CCC3=C[C@@H](n4ccc5c(N)ncnc54)[C@H](O)[C@@H]3O)c2CN1 (single isomer, unassigned) [Compound 23B]
SDMA; [1]
  IC50: 1100 to 50000 pM
Z-138 cells
  IC50: > 1000 pM

## Nc1nc2cc(CCC3=C[C@@H](n4ccc5c4ncn4ccnc54)[C@H](O)[C@@H]3O)cc(F)c2cc1Cl [Compound 27, (1S,2R,5R)-3-(2-(2-Amino-3-chloro-5-fluoroquinolin-7-yl)ethyl)-5-(7H-imidazo[1,2-c]pyrrolo[3,2-e]pyrimidin-7-yl)cyclopent-3-ene-1,2-diol]
PRMT5:MEP50
  IC50: > 0.95 nM
Z-138 cells
  IC50: > 1000 pM

## Nc1nc2cc(CCC3=C[C@@H](n4cnc5c(N)ncnc54)[C@H](O)[C@@H]3O)cc(F)c2cc1Cl [Compound 1, (1S,2R,5R)-3-(2-(2-Amino-3-chloro-5-fluoroquinolin-7-yl)ethyl)-5-(6-amino-9H-purin-9-yl)cyclopent-3-ene-1,2-diol]
PRMT5:MEP50
  IC50: 0.25 to 0.95 nM
SDMA; [2]
  IC50: 100 to 1000 pM

## CC1CNCc2c(CCC3=C[C@@H](n4ccc5c(N)ncnc54)[C@H](O)[C@@H]3O)cc(C(F)F)c(F)c21 (single isomer, unassigned) [Compound 22B]
SDMA; [2]
  IC50: 100 to 1000 pM

## CONc1ncnc2c1ccn2[C@@H]1C=C(CCc2cc(F)c3cc(Cl)c(N)nc3c2)[C@@H](O)[C@H]1O [Compound 30, (1S,2R,5R)-3-(2-(2-Amino-3-chloro-5-fluoroquinolin-7-yl)ethyl)-5-(4-(methoxyamino)-7H-pyrrolo[2,3-d]pyrimidin-7-yl)cyclopent-3-ene-1,2-diol]
PRMT5:MEP50
  IC50: 0.25 to 0.95 nM
SDMA; [2]
  IC50: 100 to 1000 pM

## CC1Cc2c(F)c(C(F)F)cc(CCC3=C[C@@H](n4ccc5c(N)ncnc54)[C@H](O)[C@@H]3O)c2CN1 (single isomer, unassigned) [Compound 23A]
PRMT5:MEP50
  IC50: 0.25 to 0.95 nM
SDMA; [2]
  IC50: 100 to 1000 pM
